From US20060111366A1, “Pharmaceutical use of substituted amides” (Novo Nordisk A/S, priority 2003, published 2006) come the findings set out here.

This assay concerns the target T1, h-11βHSD1 (Homo sapiens, UniProt P28845).
T1 construct: made in house
The experiment in a line: 11βHSD1 enzyme assay (scintillation proximity assay, conversion of 3H-cortisone to 3H-cortisol). Format: biochemical. The settings on record: extract of yeast transformed with h-11βHSD1; 120 nM 3H-cortisone, 4 mM β-NADPH, 60 min at 30° C. The procedure:
^3H-cortisone and anti-rabbit Ig coated scintillation proximity assay (SPA) beads were purchased from Amersham Pharmacia Biotech, β-NADPH was from Sigma and rabbit anticortisol antibodies were from Fitzgerald. An extract of yeast transformed with h-11βHSD1 (Hult et al., FEBS Lett., 441, 25 (1998)) was used as the source of enzyme. The test compounds were dissolved in DMSO (10 mM). All dilutions were performed in a buffer containing 50 mM TRIS-HCl (Sigma Chemical Co), 4 mM EDTA (Sigma Chemical Co), 0.1% BSA (Sigma Chemical Co), 0.01% Tween-20 (Sigma Chemical Co) and 0.005% bacitracin (Novo Nordisk A/S), pH=7.4. Optiplate 96 wells plates were supplied by Packard. The amount of ^3H-cortisol bound to the SPA beads was measured on TopCount NXT, Packard.
h-11βHSD1, 120 nM ^3H-cortisone, 4 mM β-NADPH, antibody (1:200), serial dilutions of test compound and SPA particles (2 mg/well) were added to the wells. The reaction was initiated by mixing the different components and was allowed to proceed under shaking for 60 min at 30° C. […] Data was analysed using GraphPad Prism software.
On the technique in general: SPA uses beads or plates that emit light when radiolabelled molecules are held near them.

T1 sequence (P28845 whole entry): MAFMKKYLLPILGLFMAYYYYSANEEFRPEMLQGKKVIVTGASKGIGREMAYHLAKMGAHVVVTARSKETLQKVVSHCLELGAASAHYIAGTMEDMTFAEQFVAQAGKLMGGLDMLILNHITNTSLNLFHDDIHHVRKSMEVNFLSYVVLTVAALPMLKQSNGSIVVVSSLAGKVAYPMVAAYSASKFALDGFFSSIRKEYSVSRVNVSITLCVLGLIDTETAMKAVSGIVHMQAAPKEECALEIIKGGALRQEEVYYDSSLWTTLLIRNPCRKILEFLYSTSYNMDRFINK

Broadly, the IC50 is the point on the concentration scale where inhibition reaches its midpoint. Lower therefore signals higher potency. In turn, `CN(C(=O)c1ccc2cc[nH]c2c1)C1CCCCC1` [(VII) 2, 1H-Indole-6-carboxylic acid cyclohexyl-methyl-amide] gave an IC50 of 0.118 µM.

Compound `CC1Oc2c(C(=O)N(C)C3CCCCC3)cccc2C1C` (stereo not drawn) [(VI) 1, 2,3-Dimethyl-2,3-dihydro-benzofuran-7-carboxylic acid cyclohexyl-methyl-amide] displayed a concentration for half-maximal inhibition (IC50) of 0.006 µM.

As for `CN1CCC(N(C)C(=O)CCCOc2ccccc2)CC1` [(I) 2, N-Methyl-N-(1-methyl-piperidin-4-yl)-4-Phenoxy-butyramide], the half-inhibitory concentration (IC50) amounted to 120 µM.

Take `CN(C(=O)c1ccc2[nH]cnc2c1)C1CCCCC1` [(V) 1, 1H-Benzoimidazole-5-carboxylic acid cyclohexyl-methyl-amide]: the half-maximal inhibitory concentration (IC50) amounted to 0.045 µM.

`CN(C(=O)CCCOc1ccc2c(c1)OCO2)C1CCCCC1` [(I) 1, 4-(Benzo[1,3]dioxol-5-yloxy)-N-cyclohexyl-N-methyl-butyramide] returned a half-maximal inhibitory concentration (IC50) of 0.56 µM.

As to `CCCc1c(C(=O)N(C)C2CCCCC2)cnn1-c1ccc(Cl)cc1` [(III) 1, 1-(4-Chloro-phenyl)-5-propyl-1H-pyrazole-4-carboxylic acid cyclohexyl-methyl-amide], the 50% inhibitory concentration (IC50) worked out at 0.04 µM.
